From US9545386B2, “Methods of treating infectious diseases” (SLIPPERY ROCK UNIVERSITY FOUNDATION, INC., priority 2007, dated 2017)

Tests used:
H. contortus = conditions: background statement; cited from earlier work
P. trichosuri = conditions: doramectin 0.6 mg/kg, in vivo, p<0.05, Ralston et al. (2001); cited from earlier work
[1] = test system: A. canimun life-cycle stages; conditions: in vitro, Wang et al. (1989), cited from earlier work
[2] = test system: Strongyloides stercoralis infective larvae; assay: In vitro bioassay of infective larvae, immobilization and lethal doses (eosin, Probit); format: cell-based; conditions: S. stercoralis infective larvae, 48 hr in vitro; for 48 hr ID50 ± 95% confidence intervals: immobilize 50%; for 48 hr ID90 ± 95% confidence intervals: immobilize 90%; for 48 hr LD50 ± 95% confidence intervals: kill 50%; for 48 hr LD90 ± 95% confidence intervals: kill 90%
Description: (§1) Strongyloides stercoralis infective larvae were harvested from charcoal coprocultures in nematode saline solution. The larvae were supplied by the Parasitology Laboratory, Department of Pathobiology, University of Pennsylvania. The strain of larvae was a human strain of the parasitic nematode that had been maintained for over ten years in canines by daily prednisolone treatment (2 mg/kg per os, once daily. Parastrongyloides trichosuri and Ancylostoma caninum infective larvae were also supplied by the same source as for S. stercoralis. Haemonchus contortus infective larvae were harvested from charcoal coprocultures in nematode saline solution prepared from infected sheep feces obtained from Merck Parasites Laboratory.
(§2) The 24 hr 50% and 90% immobilization doses (ID50 and ID90), and 50% and 90% lethal doses (LD50 and LD90) of eryngial (mg/ml) were investigated in vitro using infective larvae of all four parasitic nematodes. Each species was exposed to a range of eryngial dilutions by adding known volumes of a homogeneous ‘wormy’ solution (infective larvae in nematode saline solution) to known volumes of an eryngial stock suspension (10 mg/ml of nematode saline solution). Each dilution, including the control (0 mg/ml eryngial), was prepared in triplicate and also contained eosin (0.01%, w/v), which was used as an indicator of mortality, and Triton X-100 (1.0%, v/v).
(§3) Using S. stercoralis, P. trichosuri, H. contortus and A. caninum infective larvae, eryngial dilutions, excluding the controls, ranged from 0.05 to 1.15 mg/ml; 0.01 to 1.0 mg/ml; 0.5 to 2.0 mg/ml; and 0.8 to 3.0 mg/ml, respectively. Sub-sample (10 μl) counts of larvae that were mobile, immobile but not stained and stained, were done at the start of each bioassay and at 24 hr intervals for two days. Each sub-sample contained approximately 50 infective larvae.
(§4) The 48-hr immobilization doses (ID50 and ID90) and lethal doses (LD50 and LD90) of eryngial and ivermectin also were investigated, using S. stercoralis and H. contortus infective larvae. Each bioassay was conducted as described hereinabove. Using S. stercoralis and H. contortus infective larvae, ivermectin dilutions (not including the controls) ranged from 0.03 to 0.3 mg/ml and from 0.009 to 0.1 mg/ml, respectively.
(§5) Probit analysis was used to determine 24 hr and 48 hr immobilization and lethal doses for eryngial and ivermectin, respectively.

[3] = test system: Haemonchus contortus infective larvae; assay: as above; format: cell-based; conditions: H. contortus infective larvae; for 48 hr ID50 ± 95% confidence intervals: immobilize 50%; for 48 hr ID50 ± 95% confidence intervals / 48 hr ID90 ± 95% confidence intervals / 48 hr LD50 ± 95% confidence intervals / 48 hr LD90 ± 95% confidence intervals: 48 hr in vitro; for 48 hr ID90 ± 95% confidence intervals: immobilize 90%; for 48 hr LD50 ± 95% confidence intervals: kill 50%; for 48 hr LD90 ± 95% confidence intervals: kill 90%
Description: as §1, §2, §3, §4, §5

A. caninum = conditions: in vivo; cited from earlier work

CCCSc1ccc2nc(NC(=O)OC)[nH]c2c1 [Albendazole, albendazole]
efficacy rates against H. contortus infections (H. contortus): 100%

CO[C@H]1C[C@H](O[C@H]2[C@H](C)O[C@@H](O[C@@H]3/C(C)=C/C[C@@H]4C[C@@H](C[C@]5(C=C[C@H](C)[C@@H](C6CCCCC6)O5)O4)OC(=O)[C@@H]4C=C(C)[C@@H](O)[C@H]5OC/C(=C\C=C\[C@@H]3C)[C@]54O)C[C@@H]2OC)O[C@@H](C)[C@@H]1O [doramectin]
reduction of P. trichosuri infection in possums (P. trichosuri): 99%

ivermectin [reference compound]
dose that killed L3 larvae ([1]; A. caninum L3 larvae): 2.5 mg/mL | dose that killed adult worms ([1]; A. caninum adult worms): 560 mg/mL | dose detrimental to eggs inside the uterine tissue of female worms ([1]; A. caninum eggs): 1000 mg/mL | 48 hr ID50 ± 95% confidence intervals [2]: 0.136 (0.114-0.157) mg/ml | 48 hr ID50 ± 95% confidence intervals ([2]; listed as ivermectin): 0.136 mg/mL | 48 hr ID90 ± 95% confidence intervals [2]: 0.297 (0.251-0.377) mg/ml | 48 hr ID90 ± 95% confidence intervals ([2]; listed as ivermectin): 0.297 mg/mL | 48 hr LD50 ± 95% confidence intervals [2]: 0.306 (0.203-0.442) mg/ml | 48 hr LD50 ± 95% confidence intervals ([2]; listed as ivermectin): 0.306 mg/mL | 48 hr LD90 ± 95% confidence intervals [2]: 1.038 (0.665-2.498) mg/ml | 48 hr LD90 ± 95% confidence intervals ([2]; listed as ivermectin): 1.038 mg/mL | 48 hr ID50 ± 95% confidence intervals [3]: 0.011 (0.001-0.022) mg/ml | 48 hr ID50 ± 95% confidence intervals ([3]; listed as ivermectin): 0.011 mg/mL | 48 hr ID90 ± 95% confidence intervals [3]: 0.059 (0.043-0.092) mg/ml | 48 hr ID90 ± 95% confidence intervals ([3]; listed as ivermectin): 0.059 mg/mL | times greater in potency than eryngial (48 hr ID90) ([3]; ivermectin vs eryngial): 12.9 times | times more effective than eryngial at immobilizing (48 hr ID50) ([3]; ivermectin vs eryngial): 28.5 times | 48 hr LD50 ± 95% confidence intervals [3]: 4.990 (4.572-5.954) mg/ml | 48 hr LD50 ± 95% confidence intervals ([3]; listed as ivermectin): 4.990 mg/mL | 48 hr LD90 ± 95% confidence intervals [3]: 6.949 (5.858-10.10) mg/ml | 48 hr LD90 ± 95% confidence intervals ([3]; listed as ivermectin): 6.949 mg/mL | effectiveness in infected dogs (A. caninum): clearing the infection completely

c1ccc(C2CN3CCSC3=N2)cc1 (stereo not shown) [tetramisole]
efficacy rates against H. contortus infections (H. contortus): 100%
